{"source": "patent US10016409B2", "about": "“Method for improving interstitial flow” (priority 2012, dated 2018)", "key": {"[1]": {"test_system": "Tg-SwDI mice", "assay": "Perivascular Aβ deposition by immunohistochemical staining", "assay_type": "in vivo", "settings": "vs ordinary feed group", "text": "To verify interstitial flow improvement by cilostazol, inhibition of deposition of harmful proteins on the cerebrovascular lymph drainage pathway by cilostazol was examined by using a cerebral amyloid angiopathy model. Totally unlike a drainage system through a specific receptor or antigen-antibody reaction, drainage of harmful proteins through the interstitial flow is a general drainage system irrespective of the type and amount of proteins, and Aβ in these examples is merely an example of intracerebral harmful proteins for which the interstitial flow is improved so that deposition on the cerebrovascular lymph drainage pathway is inhibited.\nAfter 15 months from the start of breeding, with respect to Tg-SwDI mice of a group administered with cilostazol-containing feed for 13.5 months and Tg-SwDI mice of the ordinary feed administered group, the brain was perfusion-fixed by using 4% paraformaldehide, and the extracted brain was dehydrated for one day. Then, a paraffin block of a fixed brain tissue was prepared, and a paraffin block was sliced to 6 microns with a microtome. […] An ImageJ (NIH) was used as image analysis software. Five regions of interest were randomly selected from the frontal lobe and the hippocampus region in a tissue section, and photographed in a field with a magnification of 200. The measured data was analyzed by using a t test."}, "[2]": {"test_system": "MCI patients", "assay": "Retrospective clinical survey, MMSE change in patients with first MMSE score 22 to 26 (MCI), no anti-dementia drugs", "assay_type": "in vivo, human", "text": "Harmful proteins such as tau protein, α-synuclein protein, amyloid β protein, and ubiquitinated protein, which cause disorders in nerve function, are gradually accumulated in the brain with age. Irrespective of the type of accumulated harmful proteins, mild disorders in cognitive function is observed in an initial stage. However, in this stage, irreversible neuron degeneration in cranial nerve tissues has been seldom observed yet. Thus, activation of the interstitial flow, which is one of major drainage pathways of harmful proteins, might cure mild disorders of cognitive function. To examine this hypothesis, it was evaluated how consecutive oral administration of cilostazol affects cognitive functions of patients having MMSE scores greater than or equal to 22 and less than or equal to 26 and suspected to have mild deterioration of cognitive function.\nA survey was conducted on consecutive cases (3183 cases in total) between 1996 and 2012 whose records of cilostazol administration exist, and examination using all the cases that match the following conditions was carried out. In this examination, to eliminate the influence of anti-dementia drugs, all the patients administered with anti-dementia drugs such as donepezil were removed from the analysis.\n(§1) (i) The mini mental state exam (MMSE), which is a typical test of cognitive function, was performed twice or more with an interval of 6 months or more a case where the MMSE was performed three or more times, two examination results of the first examination and the last examination were selected);\n(ii) The first MMSE score was greater than or equal to 22 and less than or equal to 26;\n(§2) (iii) A case in which cilostazol was administered in a period at least more than a half of an MMSE observation period was selected as a group (hereinafter referred to as a treated group) subjected to consecutive treatment; and\n(iv) A case in which cilostazol was administered in two months or less in the MMSE observation period was selected as a group (hereinafter referred to as an untreated group) not subjected to consecutive treatment.\n(i) The rate of change in MMSE scores in each group (calculation method: [last MMSE score−first MMSE score]/MMSE observation period [years]); and\n(ii) The rate of change in scores in each item of the MMSE test in each group (calculation method: [score of last MMSE test item−score of first MMSE test item]/MMSE observation period [years]).\n(§3) In comparison between the two groups, statistical analysis was conducted such that the rate difference was obtained by using a chi-square test and other items were obtained by using a t test."}, "[3]": {"test_system": "dementia patients", "assay": "Retrospective clinical survey, MMSE change in dementia patients with first MMSE score less than or equal to 21", "assay_type": "in vivo, human", "text": "Thus, it is not worth referring to these reports. It is assumed that a considerable degree of irreversible neurodegeneration has progressed in dementia patients, and in view of the action mechanism of the interstitial flow-improving agent, a sufficient therapeutic effect of the interstitial flow-improving agent might not be present for dementia patients. Thus, to evaluate the influence of consecutive oral administration of cilostazol on the cognitive function, a survey of consecutive cases (3183 cases in total) for which record of cilostazol administration between 1996 and 2012 exists was conducted, and examination was conducted by using all the cases matching the following conditions. In this study, to eliminate the influence of anti-dementia drugs, patients administered with anti-dementia drugs such as donepezil were removed from the analysis.\nas §1, with “function, was conducted twice or” for “function, was performed twice or”, “or more (in a case” for “or more a case”\n(ii) The first MMSE score was less than or equal to 21;\nas §2\n(iv) A case in which cilostazol was administered in two months or less in an MMSE observation period was selected as a group (hereinafter referred to as an untreated group) not subjected to consecutive treatment.\nas §3, with “(i) The rate of change in MMSE score in each group (calculation method: [last MMSE score−first MMSE score]/MMSE observation period [years]). In” for “In”"}, "[4]": {"test_system": "MCI patients", "assay": "Clinical record analysis, MMSE change in MCI patients (MMSE 22 to 26) under donepezil hydrochloride oral administration", "assay_type": "in vivo, human", "settings": "additional oral cilostazol in MCI patients under donepezil hydrochloride", "excerpt": "Patients subjected to oral administration of donepezil hydrochloride, having an observation period of one or more years before the MMSE test date, and having first MMSE scores less than or equal to 26 were picked up from a clinical record. Among the patients, patients recorded to have been consecutively administered with cilostazol for 6 months or more in the observation period were classified as a donepezil hydrochloride and cilostazol combined use group (69 cases), and patients recorded to have experienced no cilostazol oral administration were classified as a donepezil hydrochloride single use group (87 cases). Cilostazol was oral-administered at a dosage of 50 to 200 mg/day in the morning and evening, and donepezil hydrochloride was administered at a dosage of 5 mg/day once in a day. Among the patients, patients with MMSE scores greater than or equal to 22 and less than or equal to 26 were extracted as an MCI patient group. Then, 36 cases (16 males and 20 females, average age: 78.4 years old) of the donepezil hydrochloride single use group (hereinafter referred to as a single use group) and 34 cases (15 males and 19 females, average age: 77.2 years old) of the donepezil hydrochloride and cilostazol combined use group (hereinafter referred to as combined use group) were found. The average dosage of cilostazol in the combined use group was 121 mg/day. […] Measurement of MMSE was conducted at least twice in the observation period, and the first and last test results were selected for analysis."}, "[5]": {"test_system": "dementia patients", "assay": "Clinical record analysis, MMSE change in dementia patients (MMSE less than or equal to 21) under donepezil hydrochloride oral administration", "assay_type": "in vivo, human", "settings": "dementia patients oral-administered with donepezil hydrochloride", "excerpt": "Patients subjected to oral administration of donepezil hydrochloride, having an observation period of one or more years before the MMSE test date, and having first MMSE scores less than or equal to 26 were picked up from a clinical record. Among the patients, patients recorded to have been consecutively administered with cilostazol for 6 months or more in the observation period were classified as a donepezil hydrochloride and cilostazol combined use group (69 cases), and patients recorded to have experienced no cilostazol oral administration were classified as a donepezil hydrochloride single use group (87 cases). Cilostazol was oral-administered at a dosage of 50 to 200 mg/day in the morning and evening, and donepezil hydrochloride was administered at a dosage of 5 mg/day once in a day.\nAs a dementia patient group oral-administered with donepezil hydrochloride, patients with MMSE scores less than or equal to 21 were extracted. Then, the donepezil hydrochloride single use group (the single use group) was 51 cases (17 males and 34 females, average age: 78.2 years old) and the donepezil hydrochloride and cilostazol combined use group (the combined use group) was 35 cases (14 males and 21 females, average age: 79.3 years old). The average dosage of cilostazol in the combined use group was 139 mg/day."}, "[6]": {"test_system": "Alzheimer's patients", "settings": "cilostazol alone in Alzheimer's patients, Non-patent Document 10; cited from earlier work"}}, "data": [{"smiles": "O=C1CCc2cc(OCCCCc3nnnn3C3CCCCC3)ccc2N1", "note": "[cilostazol, 6-[4-(1-cyclohexyl-1H-tetrazole-5-yl)butoxy]3,4-dihydrocarbostyril]", "values": [{"measurement": "deposition of Aβ on the perivascular site", "setting": "[1]; cilostazol-containing feed for 8 months from 4 months of age, FIG. 15", "result": "reduced"}, {"measurement": "deposition of Aβ on the perivascular site", "setting": "[1]; cilostazol-containing feed for 13.5 months from 1.5 months of age, FIG. 16", "result": "reduced"}, {"measurement": "amount of Aβ deposited on a perivascular site", "setting": "[1]; frontal lobe and hippocampus, FIGS. 13 and 14", "result": "smaller"}, {"measurement": "increase in MMSE scores (treated vs untreated group)", "setting": "[2]; MCI patients, as described in Example (4)", "result": "about 4"}, {"measurement": "rate of change in MMSE score", "setting": "[2]; MCI treated group (31 cases), first MMSE 22-26, average±standard error, P=0.007 vs untreated", "result": "0.4±0.7", "unit": "per year"}, {"measurement": "rate of change in MMSE item 5 of delayed recall", "setting": "[2]; MCI treated group, score change/observation period [years], P=0.004 vs untreated", "result": "0.16±0.13"}, {"measurement": "rate of change in MMSE item 9 of command with sentence", "setting": "[2]; MCI treated group, score change/observation period [years], P=0.008 vs untreated", "result": "0.01±0.06"}, {"measurement": "rate of change in MMSE item 11 of visual configuration", "setting": "[2]; MCI treated group, score change/observation period [years], P=0.02 vs untreated", "result": "0.03±0.08"}, {"measurement": "rate of change in MMSE item 1 of orientation to time", "setting": "[2]; MCI treated group, score change/observation period [years], P=0.03 vs untreated", "result": "−0.13±0.16"}, {"measurement": "side effects leading to no consecutive cilostazol treatment", "setting": "[2]; untreated group of MCI survey", "result": "side effects such as diarrhea and headaches"}, {"measurement": "rate of change in MMSE score", "setting": "[3]; dementia treated group (19 cases), first MMSE less than or equal to 21, average±standard error, P value 0.21 vs untreated", "result": "0.5±0.7 /year"}, {"measurement": "therapeutic effects on dementia", "setting": "[3]; first MMSE less than or equal to 21, treated vs untreated", "result": "no statistically significant therapeutic effects on dementia were observed"}, {"measurement": "side effects leading to no consecutive cilostazol treatment", "setting": "[3]; untreated group of dementia survey", "result": "side effects such as diarrhea and headaches"}, {"measurement": "reduction of the annual decrease rate of MMSE scores", "setting": "[4]", "result": "about 80%"}, {"measurement": "effectiveness for dementia", "setting": "[5]", "result": "no effectiveness for dementia"}, {"measurement": "mini-mental state examination (MMSE)", "setting": "[6]", "result": "no change is observed"}]}]}
